# Data published in paper PMC7719179, “Small molecule inhibition of Dynamin-dependent endocytosis targets multiple niche signals and impairs leukemia stem cells” (Nature Communications, 2020).
# Several values for one entry are separate records, joined by “and”; a condition that tells them apart may be missing. Identical values can stand only once.
# Columns and labels:
# [1] = system: normal hematopoietic cells of WT mice; assay: Normal hematopoiesis in treated wild-type mice (thymus and bone marrow populations); format: in vivo
# [2] = system: Lmo2^Tg primary leukemias (T-ALL 249, T-ALL 273, T-ALL 582); assay: In vivo efficacy in recipients of Lmo2^Tg primary T-ALL: leukemic DN3a cells, spleen weight, %Cd45.2+ in blood; parameters: species or system mouse; settings: for Absolute numbers CD45.2+ DN3a cells: 24 h after last administration
# Protocol: These compounds were diluted in 50% v/v DMSO/20 mM Tris-HCl pH 7.4 immediately prior to use.
# Flow cytometry analyses were performed as previously described[10],[86] on single-cell suspensions stained using BD Pharmingen antibodies (BD Australia, North Ryde NSW, Australia) against mouse CD4 (RM4-5), CD8 (53-6.7), CD25 (PC61.5), CD44 (IM7), CD45.1 (A20), CD45.2 (104), Thy1.2 (53-2.1; #561616), TCRβ (H57-597), CD117 (ACK45), CD135 (A2F10.1), CD150 (TC15-12F12.2; #562373), B220 (RA3-6B2; #563708), CD3 (145-2C11; #563004), CD19 (ID3; #557655), Gr-1 (RB6-8C5; #563299 and #565033), CD11b (M1/70; #563015 and #560455), Ter119 (Ter119; #565523 and #557909), Sca-1 (D7; #558160) and an eBioscience antibody (eBioscience, Invitrogen) against mouse NOTCH1 (22E5). DN3 populations and IL-7R were stained using BioLegend antibodies (Australian Biosearch, Balcatta WA, Australia) against mouse CD28 (E18) and CD127 (A7R34), respectively. Apoptosis was measured using an antibody against AnnexinV (#556420, BD Australia) and the […] Sytox Blue (BD Australia) following the manufacturer’s protocol. […]
# The period of administration is indicated in light grey.
# g, Leukemia growth delay (LGD) in recipients injected with Lmo2Tg primary leukemias treated with
# Median is indicated for each condition
# (bar) with Mean ± SEM indicated for each primary T-ALL, 2-way ANOVA with Tukey’s correction
# [3] = system: ETP12 and ALL8 patient-derived xenografts; assay: Survival (Kaplan-Meier) and leukemia growth delay in ETP12 and ALL8 xenograft recipients; format: in vivo, human
# Protocol: Patient-derived xenograft models were established as previously described[97],[98]. All experiments were pre-approved by the Human Research Ethics Committee of the University of New South Wales (UNSW), the UNSW Animal Care and Ethics Committee, the Alfred Health Human Ethics Committee and the AMREP Animal Ethics Committee. For transplantation assays, 10^6 splenocytes harvested from successfully engrafted primary human ETP-ALL or T-ALL xenografts were injected into nonobese diabetic/severe combined immunodeficient (NOD.Cg-Prkdc^scid, also termed NOD/SCID) or NOD/SCID/Il2rg^tm1wjl/SzJ (NSG) mice[99]. Moreover, 1.5 × 10^6 cells splenocytes harvested from successfully engrafted patient-derived AML xenografts were injected into nonobese diabetic/severe immunodeficient (NOD.Cg-Rag1^tm1MomIl2rg^tm1wjl/SzJ, also termed NRG) mice expressing human IL-3, human GM-CSF and human SCF from the SGM3 triple transgene (NRGS)[100]. Engraftment into recipients was monitored by FACS analysis of peripheral blood as previously described. […] Both males and females were used. […] Kaplan–Meier survival and statistical analyses were performed using GraphPad Prism. 6.0 software (GraphPad Software, Inc.). […]
# (blue circles) and ALL8 (red open circles) 24 hours after the last dose of drugs was administered.
# therapy. Median is indicated (bar) with Mean ± SEM indicated for ETP12 and ALL8, 2-way ANOVA
# period of administration is indicated in light grey.
# [4] = Clonogenic assay of human CD34-positive HSPCs from healthy donors, 10 days (LC50); format: cell-based; parameters: Relative number of colonies (% DMSO): unit of the concentration uncertain; settings: human
# Protocol: (§1) Cultures were incubated at 37 °C in 10% CO2 for 10 days in presence of 10 μg/mL rhIL-3 (#200-03, Pepro Tech), 25 μg/mL rhSCF (#300-07, Pepro Tech), 25 μg/mL rhFLT3-L (#300-19, Pepro Tech), rhIL-6 (#200-06, Pepro Tech), 500 nM StemRegenin 1 (SR1; #1227633-49-9, Stem Cell Technologies) and 35 nM UM-171 (#72914, Stem Cell Technologies)[93],[94], then stained with acetyl-cholinesterase and counted for the number of colonies.
# [5] = system: normal human CD34-positive HSPCs; assay: as above; format: cell-based; parameters: Relative number of colonies (% DMSO): unit of the concentration uncertain
# Protocol: as §1
smiles,measurement,setting,value
"CCCCCCCCNC(=O)C(C#N)=Cc1cn(CCCN(C)C)c2ccccc12 [Dynole 34-2, 2-Cyano-N-octyl-3-(1-(3-dimethylaminopropyl)-1H-indol-3-yl)-acrylamide]",Absolute numbers in the thymus: DN,[1]; Supplementary Figure 5a-b,6020000 and 5580000 and 7110000
same,Absolute numbers in the thymus: DN1,[1]; Supplementary Figure 5a-b,511000 and 452000 and 707000
same,Absolute numbers in the thymus: DN2,[1]; Supplementary Figure 5a-b,47600 and 47100 and 78500
same,Absolute numbers in the thymus: DN4,[1]; Supplementary Figure 5a-b,3000000 and 2950000 and 3730000
same,Absolute numbers in the thymus: DP,[1]; Supplementary Figure 5a-b,102000000 and 86500000 and 114000000
same,Absolute numbers in the thymus: SP,[1]; Supplementary Figure 5a-b,11300000 and 9900000 and 12100000
same,Absolute numbers in the bone marrow: B cells,[1]; Supplementary Figure 5c-d,6210000 and 6630000 and 5010000
same,Absolute numbers in the bone marrow: MPP2,[1]; Supplementary Figure 5c-d,32800 and 19900 and 19000
same,Absolute numbers in the bone marrow: MPP3,[1]; Supplementary Figure 5c-d,31000 and 22000 and 23000
same,Absolute numbers in the bone marrow: MPP4,[1]; Supplementary Figure 5c-d,146000 and 93900 and 87200
same,Absolute numbers in the bone marrow: Myeloid cells,[1]; Supplementary Figure 5c-d,9680000 and 8860000 and 9360000
same,Absolute numbers in the bone marrow: T cells,[1]; Supplementary Figure 5c-d,1060000 and 911000 and 1020000
same,effect on differentiated and progenitor cells in thymus and bone marrow,"[1]; non-tumour-bearing mice, result in words",no detrimental effect
same,Absolute numbers CD45.2+ DN3a cells,"[2]; T-ALL 249, Spleen of recipients",14400000 and 25700000 and 20600000
same,Proportion of CD45.2+ (%) in peripheral blood,"[2]; T-ALL 249, time 1 weeks",1.0%
same,Proportion of CD45.2+ (%) in peripheral blood,"[2]; T-ALL 249, time 3 weeks",85.0% and 93.0% and 82.0% and 75.0%
same,Proportion of CD45.2+ (%) in peripheral blood,"[2]; T-ALL 249, time 3.7 weeks",85.0% and 76.0%
same,Proportion of CD45.2+ (%) in peripheral blood,"[2]; T-ALL 249, time 4 weeks",42.1% and 57.0% and 54.0% and 43.9% and 53.3%
same,Absolute numbers CD45.2+ DN3a cells,"[2]; T-ALL 273, BM of recipients",9200 and 6480 and 12500
same,Proportion of CD45.2+ (%) in peripheral blood,"[2]; T-ALL 273, time 1 weeks",1.0%
same,Proportion of CD45.2+ (%) in peripheral blood,"[2]; T-ALL 273, time 5 weeks",2.0%
same,Proportion of CD45.2+ (%) in peripheral blood,"[2]; T-ALL 273, time 6 weeks",64.0%
same,Proportion of CD45.2+ (%) in peripheral blood,"[2]; T-ALL 582, time 1 weeks",4.9% and 3.3% and 7.9% and 0.1%
same,Proportion of CD45.2+ (%) in peripheral blood,"[2]; T-ALL 582, time 2 weeks",19.6%
same,Proportion of CD45.2+ (%) in peripheral blood,"[2]; T-ALL 582, time 4 weeks",5.1% and 6.0% and 2.7% and 1.8%
same,Proportion of CD45.2+ (%) in peripheral blood,"[2]; T-ALL 582, time 4.1 weeks",57.1%
same,Proportion of CD45.2+ (%) in peripheral blood,"[2]; T-ALL 582, time 5 weeks",40.6% and 45.8% and 42.7% and 38.8%
same,Proportion of CD45.2+ (%) in peripheral blood,"[2]; T-ALL 582, time 5.6 weeks",90.7%
same,Proportion of CD45.2+ (%) in peripheral blood,"[2]; T-ALL 582, time 6 weeks",97.8%
same,Proportion of CD45.2+ (%) in peripheral blood,"[2]; T-ALL 582, time 6.3 weeks",96.2%
same,Spleen weight,[2]; recipients of primary T-ALL 273,0.186 g and 0.118 g and 0.165 g
same,Spleen weight,[2]; recipients of primary T-ALL 582,0.123 g and 0.097 g and 0.095 g
same,"survival of recipients, single agent","[3]; ETP12 and ALL8 xenografts, result in words",significant survival advantage
same,Leukemia Growth Delay (LGD) Over Vehicle,[3]; PDX ALL8,2.62 days
same,Leukemia Growth Delay (LGD) Over Vehicle,[3]; PDX ETP12,7.34 days
same,Time to leukemia,[3]; PDX ETP12,4.63 weeks and 5.6 weeks and 4.86 weeks and 4.8 weeks and 5.54 weeks and 4.7 weeks and 4.81 weeks and 6.67 weeks
same,CC50 at 10 days,"[4]; normal human CD34-positive HSPCs, clonogenic assay 10 days, Mean ± SEM",23 ± 5.72 µM
same,CC50 at 10 days,[4]; sample 06-02-2018 CD34,8.8 µM
same,CC50 at 10 days,[4]; sample 10-03-2018 CD34,9.85 µM
same,CC50 at 10 days,[4]; sample 18/03/2016 CD34,7.09 µM
same,CC50 at 10 days,[4]; sample 21-04-2018 CD34,7.34 µM
same,CC50 at 10 days,[4]; sample 22/05/2018 CD34,17.2 µM
same,CC50 at 10 days,[4]; sample 24/06/2016 CD34,11.3 µM
same,Relative number of colonies (% DMSO),"[5]; CD34_1003, dose 0.04 (unit uncertain)",99.5 % DMSO and 94.6 % DMSO
same,Relative number of colonies (% DMSO),"[5]; CD34_1003, dose 0.2 (unit uncertain)",88.8 % DMSO and 76.1 % DMSO
same,Relative number of colonies (% DMSO),"[5]; CD34_1003, dose 1 (unit uncertain)",82.9 % DMSO and 71.2 % DMSO
same,Relative number of colonies (% DMSO),"[5]; CD34_1003, dose 5 (unit uncertain)",48.8 % DMSO and 56.6 % DMSO
same,Relative number of colonies (% DMSO),"[5]; CD34_1003, dose 25 (unit uncertain)",0.0 % DMSO
same,Relative number of colonies (% DMSO),"[5]; CD34_1602, dose 0.04 (unit uncertain)",116.1 % DMSO and 109.5 % DMSO
same,Relative number of colonies (% DMSO),"[5]; CD34_1602, dose 0.2 (unit uncertain)",118.9 % DMSO and 100.0 % DMSO
same,Relative number of colonies (% DMSO),"[5]; CD34_1602, dose 1 (unit uncertain)",106.3 % DMSO and 87.8 % DMSO
same,Relative number of colonies (% DMSO),"[5]; CD34_1602, dose 5 (unit uncertain)",89.5 % DMSO and 73.0 % DMSO
same,Relative number of colonies (% DMSO),"[5]; CD34_1602, dose 25 (unit uncertain)",0.0 % DMSO
same,Relative number of colonies (% DMSO),"[5]; CD34_2104, dose 0.04 (unit uncertain)",102.6 % DMSO
same,Relative number of colonies (% DMSO),"[5]; CD34_2104, dose 0.2 (unit uncertain)",104.6 % DMSO and 97.4 % DMSO
same,Relative number of colonies (% DMSO),"[5]; CD34_2104, dose 1 (unit uncertain)",68.7 % DMSO and 76.9 % DMSO
same,Relative number of colonies (% DMSO),"[5]; CD34_2104, dose 25 (unit uncertain)",0.0 % DMSO
